Reference: patent publication US4990613A, “(1R,5S,6S)-2-[(6,7-dih ydro-5H-pyrazolo[1,2-a][1,2,4]triazolium-6-yl)]thio-6-[R-1-hydroxyethyl]- 1-methyl-carbapenem-3-carboxylate and intermediate therefor” (Lederle (Japan), Ltd., priority 1987, dated 1991)
≈ marks a conversion by molar mass, not a printed value.

Columns and labels:
[1] = system: Swine Kidney Dehydropeptidase-I (DHP-I); test: Hydrolysis activity against DHP-I enzyme substrate by late assay; assay type: in vitro ADME; settings: final substrate concentration 100 μM, 10 minutes, pH 7.1
Protocol: The swine kidney (8 kg) was homogenized and an enzyme protein was allowed to precipitate. After a connective lipid was removed with acetone, the resultant material was made soluble by treatment with butanol and purified in the order by the ammonium sulfate fraction method, thereby producing DPH-I enzyme from a 75% ammonium sulfate fraction.
The DHP-I enzyme was then adjusted to give an enzyme concentration of 25 mg/10 ml (phosphate buffer, pH 7.1), and divided into 1 ml portions. The portions were frozen and stored at -40° C. or less until use.
As control compounds were employed glycyl dehydrophenylalanine (Gl-dh-Ph) and imipenem, and they were adjusted in situ each to give the concentration of 177 μM with the same sodium phosphate buffer solution.
To 1.2 ml of a 50 mM sodium phosphate buffer solution (substrate) containing 177 μM of each of Gh-dh-Ph and imipenem as the control compounds was added 0.2 ml of the DHP-I enzyme solution (25 mg/10 ml) prepared above in the final substrate concentration of 100 μM. The solution was then incubated at […] for 10 minutes. An initial velocity of hydrolysis of the substrate was measured from a decrease in absorbency at a particular λmax of each of the substrates.
A blank test was conducted in substantially the same manner as above by adding 0.2 ml of the sodium phosphate buffer solution (pH 7.1) to 1.2 ml of the above substrate.

Proteus vulgaris HX-19 = test: Antibacterial test, agar plate dilution method; settings: Proteus vulgaris, HX19, 18 h

SMILES: C[C@@H](O)[C@H]1C(=O)N2C(C(=O)O)=C(SCCN=CN)C[C@H]12 [Imipenem]
- initial velocity of hydrolysis against DHP-I [1]: 0.56 µM/min
- MIC (Proteus vulgaris HX-19): 0.78 µg/mL (≈ 2.61 µM)
